Source: patent publication US20260070929A1, “METHODS AND COMPOSITIONS FOR MODULATING KRAS(G12D)” (Ranok Therapeutics (Hangzhou) Co. LTD., priority 2022, published 2026)

Columns and labels:
[1] = tested on: ASPC1 pancreatic adenocarcinoma cells [homozygous G12D]; assay: Cancer cell line proliferation (CellTiter-Glo), ASPC1; format: cell-based; details: Homo sapiens, ASPC1, 72 h, 72 hr treatment, read-out: ASPC-1 CTG (EC50)
Description: (§1) The following cancer cell lines were employed: AGS gastric carcinoma [heterozygous G12D](ATCC, CRL-1739); A-427 lung carcinoma [heterozygous G12D](ATCC, HTB-53); ASPC1 pancreatic adenocarcinoma [homozygous G12D](ATCC, CRL-1682) and SW1990 pancreatic adenocarcinoma [homozygous G12D](ATCC CRL-2172). Cell lines were cultured essentially according to ATCC recommendations.
(§2) AGS, A-427, ASPC1, SW1990, and GP2D cells were plated in 96-well tissue culture plates at 4,000 cells/well and incubated at 37° C./5% CO2 for 72 hr in 100 μl of media. 3-fold serial dilutions of each test compound were prepared ranging from 20 μM to 1.02 nM. Each cell line was then treated with test compounds at various concentrations with a final concentration of 0.5% DMSO/well, and then incubated at 37° C./5% CO2 for 72 hr. 100 µl of CellTiter-Glo® Reagent (Promega Corporation, Madison, WI) was added to each well and processed according manufacturer's protocol. Results were analyzed and EC50 values were calculated in GraphPad 7 software.

KRAS(G12D)/SOS1 = target: T1, KRAS(G12D)/SOS1 (Homo sapiens, UniProt P01116, G12D); assay: KRAS(G12D)/SOS1 homogeneous time-resolved fluorescence (HTRF) assay; format: binding; details: absence of GTP; 4° C., 3 hr
T1 construct: purchased Cisbio 63ADK000CB17PEH
Description: Binding of test compounds to KRAS(G12D) target protein, which in turn blocks KRAS(G12D) interaction with the SOS1 protein, was measured in the absences of GTP by homogeneous time-resolved fluorescence using the KRAS-G12D/SOS1 Binding Assay Kit (Cisbio, 63ADK000CB17PEH), following the manufacturer's instructions, except as noted. 3-fold serial dilutions of each test compound were prepared ranging from 20 µM to 1.02 nM. The test compound was mixed and incubated with reaction components, incubated in a sealed plate at 4° C. for 3 hr and fluorescence was measured using a PerkinElmer Envision plate reader. The KRAS(G12D)-SOS1 IC50 values (the concentration of 50% of the maximal inhibition) were calculated using GraphPad Prism 7 software.

[2] = tested on: A-427 lung carcinoma cells [heterozygous G12D]; assay: Cancer cell line proliferation (CellTiter-Glo), A-427; format: cell-based; details: Homo sapiens, A-427 cells, 72 hr treatment, read-out: A427 CTG (EC50)
Description: as §1, §2

[3] = tested on: AGS gastric carcinoma cells [heterozygous G12D]; assay: Cancer cell line proliferation (CellTiter-Glo), AGS; format: cell-based; details: Homo sapiens, 72 hr treatment, read-out: AGS CTG (EC50)
Description: as §1, §2

T1 sequence (P01116 1-188 isoform P01116-2 G12D): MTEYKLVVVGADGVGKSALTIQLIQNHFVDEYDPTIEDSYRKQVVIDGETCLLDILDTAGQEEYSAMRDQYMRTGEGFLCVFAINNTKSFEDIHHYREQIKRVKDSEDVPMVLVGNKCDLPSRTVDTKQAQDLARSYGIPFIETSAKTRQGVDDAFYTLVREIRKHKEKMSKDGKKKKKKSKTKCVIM

Structure (SMILES) | EC50 [1] [µM] | IC50 (KRAS(G12D)/SOS1) [µM] | EC50 [2] [µM] | EC50 [3] [µM]
CC(C)c1cc(-c2nnc(O)n2-c2ccc(CN3CCN(C(=O)C4CCN([C@H]5C[C@@H](COc6nc(N7CC8CCC(C7)N8)c7cnc(-c8cccc9cccc(Cl)c89)cc7n6)N(C)C5)CC4)CC3)cc2)c(O)cc1O [Compound 4] | > 1 | 0.1 to 1 |  | 
CC(C)c1cc(-c2nnc(O)n2-c2ccc(CN3CCN(C(=O)C4CCN([C@H]5C[C@@H](COc6nc(N7CC8CCC(C7)N8)c7cnc(-c8cccc9cccc(Cl)c89)c(F)c7n6)N(C)C5)CC4)CC3)cc2)c(O)cc1O [Compound 5] | > 1 | < 0.1 | > 1 | 
CCNC(=O)c1nnc(-c2cc(C(C)C)c(O)cc2O)n1-c1ccc(CN2CCN(C(=O)C3CCN([C@H]4C[C@@H](COc5nc(N6CC7CCC(C6)N7)c6cnc(-c7cccc8cccc(Cl)c78)c(F)c6n5)N(C)C4)CC3)CC2)cc1 [Compound 6] | > 1 | 0.1 to 1 | 0.1 to 1 | 0.1 to 1
CNC(=O)c1nnc(-c2cc(C(C)C)c(O)cc2O)n1-c1ccc(CN2CCN(C(=O)C3CCN([C@H]4C[C@@H](COc5nc(N6CC7CCC(C6)N7)c6cnc(-c7cccc8cccc(Cl)c78)c(F)c6n5)N(C)C4)CC3)CC2)cc1 [Compound 7] | 0.1 to 1 | 0.1 to 1 | 0.1 to 1 | < 0.1
CNC(=O)c1nnc(-c2cc(C)c(O)cc2O)n1-c1ccc(CN2CCN(C(=O)C3CCN([C@H]4C[C@@H](COc5nc(C6CC7CCC(C6)N7)c6cnc(-c7cccc8cccc(Cl)c78)c(F)c6n5)N(C)C4)CC3)CC2)cc1 (some centres unmarked) [Compound 8] | > 1 | < 0.1 | > 1 | > 1
CC(C)c1cc(C(=O)N2Cc3ccc(CN4CCC(C(=O)N5CCN([C@H]6C[C@@H](COc7nc(N8CC9CCC(C8)N9)c8cnc(-c9cccc%10cccc(F)c9%10)c(F)c8n7)N(C)C6)CC5)CC4)cc3C2)c(O)cc1O [Compound 92] |  | 0.1 to 1 | 0.1 to 1 | 0.1 to 1
CC(C)c1cc(-c2nnc(C(=O)NC(C)C(F)(F)F)n2-c2ccc(CN3CCN([C@H]4C[C@@H](COc5nc(N6CC7CCC(C6)N7)c6cnc(-c7cccc8cccc(F)c78)c(F)c6n5)N(C)C4)CC3)cc2)c(O)cc1O (some centres unmarked) [Compound 93] |  | 0.1 to 1 | 0.1 to 1 | < 0.1
Cc1cccc2cccc(-c3ncc4c(N5CC6CCC(C5)N6)nc(OC[C@@H]5CC[C@H](CN6CCN(C(=O)C7CCN(Cc8ccc9c(c8)CN(C(=O)c8cc(C(C)C)c(O)cc8O)C9)CC7)CC6)N5C)nc4c3F)c12 [Compound 94] |  | 0.1 to 1 | 0.1 to 1 | 0.1 to 1
CCNC(=O)c1nnc(-c2cc(C(C)C)c(O)cc2O)n1-c1ccc(CN2CCN(C[C@H]3C[C@@H](COc4nc(N5CC6CCC(C5)N6)c5cnc(-c6cc(O)cc7ccccc67)c(F)c5n4)N(C)C3)CC2)cc1 [Compound 95] |  | < 0.1 | 0.1 to 1 | < 0.1
C#Cc1cccc2cc(O)cc(-c3ncc4c(N5CC6CCC(C5)N6)nc(OC[C@@H]5C[C@H](N6CCN(Cc7ccc(-n8c(C(=O)NCC)nnc8-c8cc(C(C)C)c(O)cc8O)cc7)CC6)CN5C)nc4c3F)c12 [Compound 96] |  | < 0.1 | 0.1 to 1 | 0.1 to 1
C#Cc1cccc2cc(O)cc(-c3ncc4c(N5CC6CCC(C5)N6)nc(OC[C@@H]5C[C@H](N6CCN(C(=O)C7CCN(Cc8ccc9c(c8)CN(C(=O)c8cc(C(C)C)c(O)cc8O)C9)CC7)CC6)CN5C)nc4c3F)c12 [Compound 97] |  | < 0.1 | 0.1 to 1 | 0.1 to 1
C#Cc1cccc2cc(O)cc(-c3ncc4c(N5CC6CCC(C5)N6)nc(OC[C@@H]5C[C@H](N6CCN(Cc7ccc(-n8c(C(=O)NC(C)C(F)(F)F)nnc8-c8cc(C(C)C)c(O)cc8O)cc7)CC6)CN5C)nc4c3F)c12 (some centres unmarked) [Compound 98] |  | < 0.1 | 0.1 to 1 | 0.1 to 1
C#Cc1cccc2cc(O)cc(-c3ncc4c(N5CC6CCC(C5)N6)nc(OC[C@@H]5C[C@H](N6CCN(Cc7ccc(-n8c(C(=O)NCC(F)(F)F)nnc8-c8cc(CC)c(O)cc8O)cc7)CC6)CN5C)nc4c3F)c12 [Compound 99] |  | < 0.1 | 0.1 to 1 | 0.1 to 1
CC(C)c1cc(-c2nnc(C(=O)NC(C)C(F)(F)F)n2-c2ccc(CN3CCN([C@H]4C[C@@H](COc5nc(N6CC7CCC(C6)N7)c6cnc(-c7cc(O)cc8ccccc78)c(F)c6n5)N(C)C4)CC3)cc2)c(O)cc1O (some centres unmarked) [Compound 100] |  | < 0.1 | 0.1 to 1 | < 0.1
CC(C)c1cc(-c2nnc(C(=O)NCC(F)(F)F)n2-c2ccc(CN3CCN([C@H]4C[C@@H](COc5nc(N6CC7CCC(C6)N7)c6cnc(-c7cc(O)cc8ccccc78)c(F)c6n5)N(C)C4)CC3)cc2)c(O)cc1O [Compound 101] |  | < 0.1 | 0.1 to 1 | < 0.1
COc1cccc2cccc(-c3ncc4c(N5CC6CCC(C5)N6)nc(OC[C@@H]5C[C@H](N6CCN(C(=O)C7CCN(Cc8ccc9c(c8)CN(C(=O)c8cc(C(C)C)c(O)cc8O)C9)CC7)CC6)CN5C)nc4c3F)c12 [Compound 104] |  | > 1 | 0.1 to 1 | 0.1 to 1
CCc1cc(-c2nnc(C(=O)NCC(F)(F)F)n2-c2ccc(CN3CCN([C@H]4C[C@@H](COc5nc(N6CC7CCC(C6)N7)c6cnc(-c7cccc8cccc(OC)c78)c(F)c6n5)N(C)C4)CC3)cc2)c(O)cc1O [Compound 105] |  | > 1 | 0.1 to 1 | 0.1 to 1
COc1cccc2cccc(-c3ncc4c(N5CC6CCC(C5)N6)nc(OC[C@@H]5C[C@H](N6CCN(Cc7ccc(-n8c(C(=O)NC(C)C(F)(F)F)nnc8-c8cc(C(C)C)c(O)cc8O)cc7)CC6)CN5C)nc4c3F)c12 (some centres unmarked) [Compound 106] |  | > 1 | 0.1 to 1 | < 0.1
CCc1cc(-c2nnc(C(=O)NCC(F)(F)F)n2-c2ccc(CN3CCN(C[C@H]4CC[C@@H](COc5nc(N6CC7CCC(C6)N7)c6cnc(-c7cccc8cccc(C)c78)c(F)c6n5)N4C)CC3)cc2)c(O)cc1O [Compound 108] |  | 0.1 to 1 | 0.1 to 1 | 0.1 to 1
CC(C)c1cc(-c2nnc(C(=O)NCC(F)(F)F)n2-c2ccc(CN3CCN([C@H]4C[C@@H](COc5nc(N6CC7CCC(C6)N7)c6cnc(-c7cccc8cccc(F)c78)c(F)c6n5)N(C)C4)CC3)cc2)c(O)cc1O [Compound 109] |  | 0.1 to 1 | 0.1 to 1 | < 0.1
CC(C)c1cc(-c2nnc(C(=O)NC(C)C(F)(F)F)n2-c2ccc(CN3CCN(C[C@H]4C[C@@H](COc5nc(N6CC7CCC(C6)N7)c6cnc(-c7cc(O)cc8ccccc78)c(F)c6n5)N(C)C4)CC3)cc2)c(O)cc1O (some centres unmarked) [Compound 118] |  | < 0.1 | 0.1 to 1 | < 0.1
C#Cc1cccc2cc(O)cc(-c3ncc4c(N5CC6CCC(C5)N6)nc(OCC5(CN6CCC(C(=O)N7CCN(Cc8ccc(-n9c(C(=O)NCC(F)(F)F)nnc9-c9cc(C(C)C)c(O)cc9O)cc8)CC7)CC6)CC5)nc4c3F)c12 [Compound 119] |  | < 0.1 | 0.1 to 1 | < 0.1
C#Cc1cccc2cc(O)cc(-c3ncc4c(N5CC6CCC(C5)N6)nc(OCC5(CN6CCC(C(=O)N7CCN(Cc8ccc9c(c8)CN(C(=O)c8cc(C(C)C)c(O)cc8O)C9)CC7)CC6)CC5)nc4c3F)c12 [Example 3, 4-{5-[(4-{1-[(1-{[(4-{3,8-diazabicyclo[3.2.1]octan-3-yl}-7-(8-ethynyl-3-hydroxynaphthalen-1-yl)-8-fluoropyrido[4,3-d]pyrimidin-2-yl)oxy]methyl}cyclopropyl)methyl]piperidine-4-carbonyl}piperazin-1-yl)methyl]-1,3-dihydroisoindole-2-carbonyl}-6-isopropylbenzene-1,3-diol] |  | < 0.1 | 0.1 to 1 | < 0.1
